The source of these data is patent US4053580A, “Microsealed pharmaceutical delivery device” (G. D. Searle & Co., priority 1975, dated 1977).

What all share (format): physicochemical
Series [1] is described as follows: Release of pharmaceutical from microsealed silicone delivery device (release rate and kinetics). To be noted: device: 2 parts drug in 2 parts 40% PEG (MW 380-420) in water, Silastic 382 matrix, Silastic tubing. From the text:
amount of pharmaceutical released decreases with time and Q - t
Those skilled in the pharmaceutical arts will know how to determine toxic levels of a given pharmaceutical, and the minimum effective dose. With this information a proper dosage form can be prepared by measuring the in vivo rate of elution of a given pharmaceutical by standard analytic tecniques e.g. spectroscopic or radio immunoassay analysis. In vitro diffusion of the pharmaceutical from a delivery device may be determined by the methods of Chien and Lambert, J. Pharm. Sci., 63, 365 (1974) or by methods described in U.S. Pat. No. 3,710,795.
A biologically acceptable silicone polymer matrix containing a pharmaceutical in a hydrophilic solvent system is prepared as follows: […] of ethynodiol diacetate at 37° C. by vigorous agitation for 10 minutes. To this mixture is added 6 parts of liquid silicone polymer of the formula [drawing 5] sold as Silastic® Medical Grade 382 Elastomer by Dow-Corning and this combination is stirred with a mechanical mixer at 1000 rpm for 28 minutes. 0.015 Parts of a cross-linking agent (stannous octanoate is added to the combination and stirring is continued for 2 minutes. The combination is placed in a silicone rubber tubing (I.D. 3.18mm, 0.D. 6.35mm sold by Dow-Corning as Medical Grade Silastic Tubing No. 601-365). This tubing is a silicone polymer of the formula The system is allowed to cross-link for 1 hour and then the tubing is sectioned to provide pharmaceutical delivery devices with the desired amount of pharmaceutical. The ends of the sections may be sealed or left open and additional openings may be made in the walls of the tubing to facilitate higher but still constant rates of release. This device releases 315.6 mcg/cm^2 /day of ethynodiol diacetate. Replacement of the ethynodiol diacetate with 2 parts of one of the following pharmaceuticals provides the indicated release rate: […]

Experiment in series [2]: as above
The following applies: for Kinetics of release: Q - t = partition controlled, constant release independent of time.

Series [3] can be described thus: Solubility of pharmaceutical (Cl) in hydrophilic solvent system at 37° C, 24 h shaking. The following applies: organic solvent or mixture. As for the experimental part:
Solubility of a pharmaceutical (Cl) is measured by constant shaking for 24 hours an excess amount of powdered pharmaceutical in 10 ml. of a hydrophilic solvent system at 37° C. The solution is filtered and the content of the pharmaceutical is measured.
(§1) Table I is illustrative of the relation between Cl, Kb, release rate, and kinetics of release of 17α-ethynyl-4-estrene-3β,17β-diol 3,17-diacetate (ethynodiol diacetate) in a hydrophilic solvent system of polyethylene glycol having a molecular weight of about 400.

Series [4] can be described thus: Partition coefficient (Kb) between hydrophilic solvent system and silicone polymer matrix. On the procedure: Partition coefficient K(b) is measured by immersing a known surface area of biologically acceptable silicone polymer matrix material in a solution of the pharmaceutical in the hydrophilic solvent system with constant shaking for 24 hours and then measuring the amount of pharmaceutical remaining in the solvent system.
Ci = initial concentration of pharmaceutical
Cl = Equilibrium concentration of pharmaceutical
as §1

As to `CC(=O)S[C@@H]1CC2=CC(=O)CC[C@]2(C)[C@H]2CC[C@@]3(C)[C@@H](CC[C@@]34CCC(=O)O4)[C@H]12` [7α-acetylthio-17α-(2-carboxyethyl)-17β-hydroxyandrost-4-en-3-one lactone], in series [1], the Release rate is reported as 18.25 mcg/cm^2 /day.
Take `COC(=O)C1CC2=CC(=O)CCC2(C)C2CCC3(C)C(CCC34CCC(=O)O4)C12` (stereo not drawn) [17-hydroxy-7β-methoxycarbonyl-3-oxo-17α-pregn-4-ene-21-carboxylic acid γ-lactone]: the Release rate in series [1] was 63.08 mcg/cm^2 /day.
Turning to `CC(=O)O[C@]1(C(C)=O)CC[C@H]2[C@@H]3CCC4=CC(=O)CC[C@@H]4[C@H]3[C@@H](C)C[C@@]21C` [17α-acetoxy-11β-methyl-19-norpregn-4-ene-3,20-dione], in series [1], the Release rate is 51.89 mcg/cm^2 /day.
On to `CC(=O)OCC(=O)[C@H]1CC[C@H]2[C@@H]3CCC4=CC(=O)CC[C@]4(C)[C@H]3CC[C@]12C` [Desoxycorticosterone acetate], for which, in series [1], the Release rate came out at 55.1 mcg/cm^2 /day.
The solubility is the concentration that dissolves in the medium under given conditions. `C#C[C@]1(OC(C)=O)CC[C@H]2[C@@H]3CCC4=C[C@@H](OC(C)=O)CC[C@@H]4[C@H]3CC[C@@]21C` [ethynodiol diacetate, 17α-ethynyl-4-estrene-3β,17β-diol 3,17-diacetate]: the “Release rate time dependence with alternative solvent systems” value in series [2] (1,3-butanediol, propylene glycol, PEG 4000, PEG 6000, Solketal, Medical Fluid 360 solvent systems) is “independent of time”. In addition, the “Release from devices with alternative solvent systems” value in series [2] (1,3-butanediol, propylene glycol, PEG 4000, PEG 6000, Solketal, Medical Fluid 360 solvent systems, prepared as for PEG 400) is on record as 150 - 275 mcg/cm^2. Also, the “Rate of Pharmaceutical Release” value was 297.8 gm/10^6 cm^2/day in series [2] (30% PEG 400); 315.6 gm/10^6 cm^2/day in series [2] (50% PEG 400); 319.4 gm/10^6 cm^2/day in series [2] (60% PEG 400); 1203 gm/10^6 cm^2/day^1/2 in series [2] (80% PEG 400); 1095 gm/10^6 cm^2/day^1/2 in series [2] (100% PEG 400). For the same compound, the Kinetics of release result in series [2] (30% PEG 400), in series [2] (50% PEG 400) and in series [2] (60% PEG 400) was “Q - t” each time. Besides, the “Release rate from silicone rubber implantates, relation to time” value in series [2] (in the absence of microsealed compartments containing a suitable hydrophilic solvent) is listed as “porportional to the square root of time (T^1/2)”. The solubility at 24 h in series [3] (30% PEG 400, 37° C) worked out at 64.6 µg/mL; in series [3] (50% PEG 400, 37° C), 156 µg/mL; in series [3] (60% PEG 400, 37° C), 437 µg/mL; in series [3] (80% PEG 400, 37° C) it was 4460 µg/mL; in series [3] (100% PEG 400, 37° C), 45600 µg/mL. The Release rate in series [1] is given as 315.6 mcg/cm^2 /day. Also, the Kb/Cl was determined as 0.355 mL/µg in series [4] (30% PEG 400); 0.061 mL/µg in series [4] (50% PEG 400); 0.0078 mL/µg in series [4] (60% PEG 400); 7.4e-05 mL/µg in series [4] (80% PEG 400); 7e-07 mL/µg in series [4] (100% PEG 400).
On to `Cc1ncc([N+](=O)[O-])n1CCO` [metronidazole], for which, in series [1], the Release rate stood at 4.23 mcg/cm^2 /day.
